Among the data in ChEMBL document CHEMBL4373704, “Mucosal Vaccination with a Self-Adjuvanted Lipopeptide Is Immunogenic and Protective against Mycobacterium tuberculosis” (J Med Chem, 2019) are Activity values, retold here.

The source made the active and inactive calls. No cut-off for these calls is given here.

For assay [1], the species on record is Mus musculus. Nature of the assay: Induction of antigen-specific immunogenicity in C57BL/6 mouse assessed as induction of pulmonary CD4+ T-lymphocyte responses by measuring spleen ESAT6-specific CD4+ T-lymphocytes producing IFNgamma at 14.2 ug, in measured 3 weeks after the final vaccination by immunostaining and flow cytometry. In kind it is functional, organism-based. In general terms: A flow cytometer gives signals particle by particle.

For assay [2], the species on record is Mus musculus. In words: Induction of antigen-specific immunogenicity in C57BL/6 mouse assessed as induction of pulmonary CD4+ T-lymphocyte responses by measuring lung ESAT6-specific CD4+ T-lymphocytes producing TNFalpha at 14.2 ug, in measured 3 weeks after the final vaccination by immunostaining and flow cytometry. Format: functional, organism-based.
Assay [3] relates to Mus musculus. Nature of the assay: Induction of antigen-specific immunogenicity in C57BL/6 mouse assessed as induction of pulmonary CD4+ T-lymphocyte responses by measuring spleen ESAT6-specific CD4+ T-lymphocytes producing IL-2 at 56.8 ug, sc measured 3 weeks after the final vaccination by immunostaining and flow cytometry. Format: functional, organism-based.
For assay [4], the species on record is Mus musculus. Nature of the assay: Induction of antigen-specific immunogenicity in C57BL/6 mouse assessed as induction of pulmonary CD4+ T-lymphocyte responses by measuring lung ESAT6-specific CD4+ T-lymphocytes producing IL-17 at 14.2 ug, in measured 3 weeks after the final vaccination by immunostaining and flow cytometry. In kind it is functional, organism-based.

Assay [5] relates to Mus musculus. Nature of the assay: Induction of antigen-specific immunogenicity in C57BL/6 mouse assessed as induction of pulmonary CD4+ T-lymphocyte responses by measuring lung ESAT6-specific CD4+ T-lymphocytes producing IL-2 at 56.8 ug, sc measured 3 weeks after the final vaccination by immunostaining and flow cytometry. In kind it is functional, organism-based.
Assay [6] has as its system Mus musculus. Nature of the assay: Induction of antigen-specific immunogenicity in C57BL/6 mouse assessed as induction of pulmonary CD4+ T-lymphocyte responses by measuring lung ESAT6-specific CD4+ T-lymphocytes producing IFNgamma at 56.8 ug, sc measured 3 weeks after the final vaccination by immunostaining and flow cytometry. Format: functional, organism-based.
The subject of assay [7] is Mus musculus. In words: Induction of antigen-specific immunogenicity in C57BL/6 mouse assessed as induction of pulmonary CD4+ T-lymphocyte responses by measuring lung ESAT6-specific CD4+ T-lymphocytes producing IL-17 at 56.8 ug, sc measured 3 weeks after the final vaccination by immunostaining and flow cytometry. Format: functional, organism-based.
The species named for assay [8] is Mus musculus. In words: Induction of antigen-specific immunogenicity in C57BL/6 mouse assessed as induction of pulmonary CD4+ T-lymphocyte responses by measuring lung ESAT6-specific CD4+ T-lymphocytes producing INFNgamma at 14.2 ug, in measured 3 weeks after the final vaccination by immunostaining and flow cytometry. In kind it is functional, organism-based.
For assay [9], the target named is Toll-like receptor 2 (Homo sapiens) (UniProt O60603). Nature of the assay: Activation of YFP-tagged TLR2 (unknown origin) expressed in HEK293 cells assessed as induction of IL8 secretion at 33.5 ug/mL incubated for 16 to 18 hrs by ELISA. In kind it is cell-based. A general note: In an ELISA, binding on a coated surface is turned into a signal by an enzyme label.

Assay [10] is filed under the species Mus musculus. Nature of the assay: Induction of antigen-specific immunogenicity in C57BL/6 mouse assessed as induction of pulmonary CD4+ T-lymphocyte responses by measuring spleen ESAT6-specific CD4+ T-lymphocytes producing IL-17 at 14.2 ug, in measured 3 weeks after the final vaccination by immunostaining and flow cytometry. Format: functional, organism-based.

The species entered for assay [11] is Mus musculus. Nature of the assay: Induction of antigen-specific immunogenicity in C57BL/6 mouse assessed as induction of pulmonary CD4+ T-lymphocyte responses by measuring spleen ESAT6-specific CD4+ T-lymphocytes producing IL-2 at 14.2 ug, in measured 3 weeks after the final vaccination by immunostaining and flow cytometry. In kind it is functional, organism-based.

The species entered for assay [12] is Mus musculus. In words: Induction of antigen-specific immunogenicity in C57BL/6 mouse assessed as induction of pulmonary CD4+ T-lymphocyte responses by measuring lung ESAT6-specific CD4+ T-lymphocytes producing IL-2 at 14.2 ug, in measured 3 weeks after the final vaccination by immunostaining and flow cytometry. Format: functional, organism-based.
Assay [13] concerns Mus musculus. Nature of the assay: Induction of antigen-specific immunogenicity in C57BL/6 mouse assessed as induction of pulmonary CD4+ T-lymphocyte responses by measuring spleen ESAT6-specific CD4+ T-lymphocytes producing IFNgamma at 56.8 ug, sc measured 3 weeks after the final vaccination by immunostaining and flow cytometry. In kind it is functional, organism-based.
The test system of assay [14] is Mus musculus. Nature of the assay: Induction of antigen-specific immunogenicity in C57BL/6 mouse assessed as induction of pulmonary CD4+ T-lymphocyte responses by measuring spleen ESAT6-specific CD4+ T-lymphocytes producing TNFalpha at 56.8 ug, sc measured 3 weeks after the final vaccination by immunostaining and flow cytometry. Format: functional, organism-based.

Assay [15] relates to Mus musculus. In words: Induction of antigen-specific immunogenicity in C57BL/6 mouse assessed as induction of pulmonary CD4+ T-lymphocyte responses by measuring spleen ESAT6-specific CD4+ T-lymphocytes producing IL-17 at 56.8 ug, sc measured 3 weeks after the final vaccination by immunostaining and flow cytometry. Format: functional, organism-based.
The species entered for assay [16] is Mus musculus. In words: Induction of antigen-specific immunogenicity in C57BL/6 mouse assessed as induction of pulmonary CD4+ T-lymphocyte responses by measuring spleen ESAT6-specific CD4+ T-lymphocytes producing TNFalpha at 14.2 ug, in measured 3 weeks after the final vaccination by immunostaining and flow cytometry. Format: functional, organism-based.
For assay [17], the system named is Mus musculus. In words: Induction of antigen-specific immunogenicity in C57BL/6 mouse assessed as induction of pulmonary CD4+ T-lymphocyte responses by measuring lung ESAT6-specific CD4+ T-lymphocytes producing TNFalpha at 56.8 ug, sc measured 3 weeks after the final vaccination by immunostaining and flow cytometry. In kind it is functional, organism-based.
Assay [18] deals with Mus musculus. Nature of the assay: Induction of antigen-specific immunogenicity in C57BL/6 mouse assessed as induction of pulmonary CD4+ T-lymphocyte responses by measuring spleen ESAT6-specific CD8+ T-lymphocytes producing TNFalpha at 10 ug, sc measured 3 weeks after the final vaccination by immunostaining and flow cytometry. Format: functional, organism-based.
The species entered for assay [19] is Mus musculus. Nature of the assay: Induction of antigen-specific immunogenicity in C57BL/6 mouse assessed as induction of pulmonary CD4+ T-lymphocyte responses by measuring lung ESAT6-specific CD8+ T-lymphocytes producing IL-2 at 10 ug, in measured 3 weeks after the final vaccination by immunostaining and flow cytometry. In kind it is functional, organism-based.

Assay [20] relates to Mus musculus. In words: Induction of antigen-specific immunogenicity in C57BL/6 mouse assessed as induction of pulmonary CD4+ T-lymphocyte responses by measuring spleen ESAT6-specific CD8+ T-lymphocytes producing IFNgamma at 10 ug, sc measured 3 weeks after the final vaccination by immunostaining and flow cytometry. Format: functional, organism-based.
The species entered for assay [21] is Mus musculus. In words: Induction of antigen-specific immunogenicity in C57BL/6 mouse assessed as induction of pulmonary CD4+ T-lymphocyte responses by measuring lung ESAT6-specific CD8+ T-lymphocytes producing IFNgamma at 10 ug, in measured 3 weeks after the final vaccination by immunostaining and flow cytometry. Format: functional, organism-based.
For assay [22], the species on record is Mus musculus. Nature of the assay: Induction of antigen-specific immunogenicity in C57BL/6 mouse assessed as induction of pulmonary CD4+ T-lymphocyte responses by measuring lung ESAT6-specific CD8+ T-lymphocytes producing TNFalpha at 10 ug, in measured 3 weeks after the final vaccination by immunostaining and flow cytometry. Format: functional, organism-based.

Assay [23] concerns the target Toll-like receptor 2 (Homo sapiens) (UniProt O60603). Nature of the assay: Activation of YFP-tagged TLR2 (unknown origin) expressed in HEK293 cells assessed as induction of IL8 secretion at 8 ug/mL incubated for 16 to 18 hrs by ELISA. Format: cell-based.
Assay [24] is filed under the species Mus musculus. In words: Induction of antigen-specific immunogenicity in C57BL/6 mouse assessed as induction of pulmonary CD4+ T-lymphocyte responses by measuring lung ESAT6-specific CD8+ T-lymphocytes producing IL-17 at 10 ug, in measured 3 weeks after the final vaccination by immunostaining and flow cytometry. In kind it is functional, organism-based.

Chain of Toll-like receptor 2 (Homo sapiens) (O60603 whole entry): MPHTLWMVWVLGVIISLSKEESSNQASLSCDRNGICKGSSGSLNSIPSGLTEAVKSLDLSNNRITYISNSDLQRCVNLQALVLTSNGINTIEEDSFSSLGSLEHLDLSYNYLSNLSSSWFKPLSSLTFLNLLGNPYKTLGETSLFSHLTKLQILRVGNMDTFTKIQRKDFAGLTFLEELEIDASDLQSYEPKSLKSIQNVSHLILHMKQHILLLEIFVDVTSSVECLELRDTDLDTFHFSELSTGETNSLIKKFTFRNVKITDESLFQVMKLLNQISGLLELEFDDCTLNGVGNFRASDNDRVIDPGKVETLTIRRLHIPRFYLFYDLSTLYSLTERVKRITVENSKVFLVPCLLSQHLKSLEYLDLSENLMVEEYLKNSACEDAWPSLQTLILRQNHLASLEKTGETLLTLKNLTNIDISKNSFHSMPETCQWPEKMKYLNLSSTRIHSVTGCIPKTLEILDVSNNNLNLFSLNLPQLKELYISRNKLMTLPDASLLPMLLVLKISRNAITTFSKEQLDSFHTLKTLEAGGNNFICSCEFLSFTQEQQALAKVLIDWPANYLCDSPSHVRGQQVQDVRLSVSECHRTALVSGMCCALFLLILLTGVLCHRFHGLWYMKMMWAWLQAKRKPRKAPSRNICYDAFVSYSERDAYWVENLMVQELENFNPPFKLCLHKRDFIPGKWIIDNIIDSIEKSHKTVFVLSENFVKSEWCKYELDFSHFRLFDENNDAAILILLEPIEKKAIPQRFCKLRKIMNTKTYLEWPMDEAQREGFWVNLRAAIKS

For `CCCCCCCCCCCCCCCC(=O)OC[C@H](CSC[C@H](N)C(=O)N[C@@H](CO)C(=O)N[C@@H](CCCCN)C(=O)N[C@@H](CCCCN)C(=O)N[C@@H](CCCCN)C(=O)N[C@@H](CCCCN)C(=O)NCCOCCOCC(=O)N[C@@H](CCSC)C(=O)N[C@H](C(=O)N[C@@H](CCC(=O)O)C(=O)N[C@@H](CCC(N)=O)C(=O)N[C@@H](CCC(N)=O)C(=O)N[C@@H](Cc1c[nH]c2ccccc12)C(=O)N[C@@H](CC(N)=O)C(=O)N[C@@H](Cc1ccccc1)C(=O)N[C@@H](C)C(=O)NCC(=O)N[C@H](C(=O)N[C@@H](CCC(=O)O)C(=O)N[C@@H](C)C(=O)N[C@@H](C)C(=O)N[C@@H](C)C(=O)N[C@@H](CO)C(=O)N[C@@H](C)C(=O)N[C@H](C(=O)N[C@@H](CCC(N)=O)C(=O)NCC(=O)N[C@@H](CCC(N)=O)C(=O)N[C@H](C(=O)N[C@@H](CCSC)C(=O)N[C@@H](Cc1ccc(O)cc1)C(=O)N[C@@H](CC(N)=O)C(=O)N[C@@H](Cc1ccc(O)cc1)C(=O)N1CCC[C@H]1C(=O)N[C@@H](C)C(=O)N[C@@H](CCSC)C(=O)O)[C@@H](C)CC)[C@@H](C)CC)[C@@H](C)CC)[C@@H](C)O)OC(=O)CCCCCCCCCCCCCCC`, the result (in the assay filed under Mus musculus [1]; in the assay filed under Mus musculus [2]; with Mus musculus [3]; in the assay listed under Mus musculus [4]; in the assay listed under Mus musculus [8]; in assay [9]) was Active. The outcome in the assay listed under Mus musculus [10], in the assay filed under Mus musculus [11], in the assay filed under Mus musculus [12], in the assay on Mus musculus [14] and in the assay filed under Mus musculus [16] was Active. Further, the outcome in the assay with Mus musculus [5], with Mus musculus [6], in the assay with Mus musculus [7], in the assay with Mus musculus [13], in the assay on Mus musculus [15] and in the assay on Mus musculus [17] was inactive.

Regarding H-QIMYNYPAM-OH, the outcome in the assay on Mus musculus [18] and in the assay on Mus musculus [20] was Active. In addition, the outcome (in the assay listed under Mus musculus [19]; in the assay listed under Mus musculus [21]; in the assay filed under Mus musculus [22]; in assay [23]; in the assay filed under Mus musculus [24]) was inactive.
